Each block holds one molecule with its values, some of them ahead of it.
Legend:
[1] = background, literature and labels; cited from earlier work
[2] = target: PKa in DXS-activated plasma (Homo sapiens, UniProt P03952); assay: Catalytic activity of PKa in dextran sulfate-activated plasma (inhibitor added before DXS); type: biochemical; settings: read-out: IC50 plasma enzyme
Description: Catalytic activity of PKa in dextran sulfate-activated (DXS, Sigma; 10 μg/ml) plasma (1:4 diluted or undiluted, VisuCon-F control plasma, Affinity Biologicals Inc) was determined by the time-dependent hydrolysis of fluorogenic substrate.

[3] = target: T1, Human plasma kallikrein (Protogen) (Homo sapiens, UniProt P03952); assay: Plasma kallikrein inhibitory activity in vitro (purified enzyme, fluorogenic substrate); type: biochemical; settings: 25° C., substrate H-DPro-Phe-Arg-AFC
T1 construct: purchased Protogen
Description: Human plasma kallikrein (Protogen) was incubated at 25° C. with the fluorogenic substrate H-DPro-Phe-Arg-AFC and various concentrations of the test compound. Residual enzyme activity (initial rate of reaction) was determined by measuring the change in […] at 410 nm and the IC50 value for the test compound was determined.

purified PKa = purified PKa (Homo sapiens, UniProt P03952); assay: Rate of formation of the enzyme-inhibitor complex (Kon); type: biochemical
Description: The rate of formation of the enzyme-inhibitor complex (Kon) was determined using purified PKa rapidly mixed with a solution containing fluorogenic substrate and a concentration range of inhibitor. The time-dependent establishment of inhibition was then used to calculate the rate of formation of the enzyme-inhibitor complex for each concentration of inhibitor. The Kon was calculated by plotting the rate of inhibition versus the inhibitor concentration. Data in Table 1 are presented in μM^−1 sec^−1.

[4] = target: T2, plasma kallikrein in pre-activated undiluted human plasma (Homo sapiens, UniProt P03952); assay: Inhibition of enzyme activity of pre-activated undiluted plasma (compound added after DXS); type: biochemical; settings: added 3.5 minutes post DXS; compound 300, 1000, 3000 nM; C1-INH 3000 nM (FIG. 3B)
T2 construct: from tissue
Description: The ability of the compound to inhibit the enzyme activity of pre-activated plasma was assessed by addition of the compound after DXS stimulation. Aliquots of plasma (20 μL) were mixed with a 2.5 μL solution containing […] fluorogenic substrate (H-DPro-Phe-Arg-AFC) and a 2.5 μL solution of dextran sulphate (DXS; 100 μg/mL) which acted as an activator of the plasma kallikrein-kinin pathway. Enzyme activity was immediately measured by monitoring the accumulation of fluorescence liberated from the substrate by substrate cleavage over 16 minutes. At 3.5 minutes post DXS addition 5 μl of inhibitors or water control are were added into each well. The compound was tested at concentrations of 300, 1000 and 3000 nM. C1-INH at a concentration of 3000 nM and vehicle controls were also included.

[5] = Plasma free fraction by Rapid Equilibrium Dialysis; type: in vitro ADME; settings: 5 μM in neat human plasma, dialysed 5 hrs at 37° C.
Description: Plasma free fraction was determined using “Rapid Equilibrium Dialysis” system (Thermo Scientific), test compounds were prepared at 5 μM in neat human plasma and dialysed against phosphate buffer for 5 hrs at 37° C. Quantification of the compound partitioned in two chambers of the dialysis device was performed via LCMS/MS. Fraction of compound unbound to plasma proteins presented as % of total.

[6] = Phase 2 study Part 1: pharmacokinetics in HAE patients; type: in vivo; settings: human, plasma, 600 mg single oral dose, n = 27, preliminary, read-out: Cmax Mean (95% CI)
Description: In Part 1, subjects will receive a single oral dose of 600 mg of the compound to investigate the safety, PK and PD of the compound during the intercritical period between HAE attacks.
Part 1: Blood samples for PK and PD measurements will be collected at the following timepoints: Pre-dose (0 h), 15 min, 30 min, 45 min, 1 h, 1.5 h, 2 h, 3 h, and 4 h post-dose. Vital signs (systolic blood pressure [SBP], diastolic blood pressure [DBP], pulse rate [PR], respiratory rate [RR] and body temperature) will be measured at pre-dose (0 h), 1 h, and 4 h post-dose. Samples for post-treatment safety laboratory assessments will be taken with the 4 h PK/PD samples.
Non-compartmental PK parameters will include maximum concentration in plasma (Cmax), time to reach Cmax in plasma (tmax), and area under the curve from time 0 to last sample (AUC0-t). Compartmental PK modelling will describe the PK of the compound and generate underlying Cmax, tmax, AUC, apparent clearance (CL/F), apparent volume of distribution (Vd/F) and estimated terminal elimination half-life (t½).
The PK parameters of the compound will be determined from the individual concentration versus time data using Phoenix WinNonlin. In case of a deviation from the theoretical time, the actual time of blood sample will be used in the calculation of the derived PK parameters. […]

[7] = system: HK cleavage by PKa in undiluted citrated human plasma; assay: Protection of HK from PKa-mediated cleavage in DXS-stimulated HAE and control plasma (WES immunoassay); type: biochemical
Description: High molecular weight kininogen (HK) cleavage in undiluted citrated human plasma was induced by contact system activation with dextran sulfate (DXS, Sigma #31395-10G; 6.25 μg/ml) on wet ice. […] HAE plasma was obtained from HAE subjects (n=6) and C1-inhibitor deficiency was confirmed by western blotting. Protection of HK from PKa mediated cleavage in DXS-stimulated whole undiluted plasma was then determined by two methods; traditional western blotting and a semi-automated capillary-based immunoassay.
Preparation of samples: Combine one part 5× fluorescent master mix with four parts of the 1:200 plasma sample. Vortex to mix. Heat the samples+fluorescent master mix and the biotinylated ladder at 95° C. for 5 minutes, vortex, and load onto the WES plate. Monoclonal anti-human HK antibody was used for this chemiluminescence-based detection method using the Wes System (ProteinSimple).
Analysis: Collect the peak area measurement obtained in the Compass software (cbz file) for the full-length HK molecular weight of the respective time-point sample with DXS-induced activation. The peak area is defined as the area calculated for the spectral peak profile for HK. To measure the plasma kallikrein inhibition by the compound, the percent full-length HK detected was calculated.

HK cleavage = assay: Phase 1 SAD: ex vivo DXS-stimulated HK cleavage, capillary-based immunoassay (Wes); type: in vivo, human
Description: (§1) PD measurements were determined in dextran sulfate (DXS) stimulated undiluted plasma using a fluorogenic enzyme assay and capillary based HK cleavage immunoassay.
DXS-stimulated cleavage of HK, in undiluted plasma was quantified by capillary-based immunoassay on the Wes System (ProteinSimple) using monoclonal anti-HK antibody and chemiluminescence-based detection. Plasma kallikrein mediated HK cleavage in undiluted citrated human plasma was induced by contact system activation with DXS (6.25 μg/ml) at 4° C. in selected samples from the SAD phase.

[8] = system: Factor XII (FXII) cleavage / FXIIa generation; assay: Phase 1 SAD: ex vivo DXS-stimulated generation of FXIIa, Wes immunoassay; type: in vivo, human; settings: 600 mg oral capsules, up to 12 hrs post-dose
From the text: (§2) DXS-stimulated cleavage of plasma prekallikrein and Factor XII (FXII) were quantified by capillary-based immunoassay on the Wes System (ProteinSimple) analogously.

Plasma Kallikrein = target: T3, Plasma Kallikrein (Homo sapiens, UniProt P03952); assay: Phase 1 SAD / food effect: ex vivo PKa catalytic activity in DXS-stimulated undiluted plasma
T3 construct: PD measurements were determined in dextran sulfate (DXS) stimulated undiluted plasma using a fluorogenic enzyme assay; from tissue; host or cells: undiluted plasma of healthy male volunteers after oral dosing, stimulated ex vivo with dextran sulfate
Description: as §1
The time until appearance of detectable amidolytic enzyme activity in DXS-stimulated plasma (lag time) was calculated from the catalytic activity assay. The detection sensitivity of the rate of catalytic activity in plasma based on using a Spark (Tecan) fluorimeter is a fluorescence increase to reach 1ΔF unit/sec.

[9] = system: plasma prekallikrein (PPK) cleavage; assay: Phase 1 SAD: ex vivo DXS-stimulated cleavage of plasma prekallikrein, Wes immunoassay; type: in vivo, human; settings: 600 mg oral capsules, up to 12 hrs post-dose
From the text: as §2

[10] = Phase 1 multiple dose study: safety, tolerability and ECG; type: in vivo, human; settings: 3 x 600 mg every 8, 4 or 2 hours, total 1800 mg, healthy adults
Description: This is a phase 1, double-blind, placebo-controlled, multiple-dose, multiple-cohort study to evaluate safety and tolerability of the compound as well as of the ECG effects of the compound formulated as 100 mg Film Coated Tablets in healthy adult male and female subjects.
During the study, oral doses of 600 mg of the compound as Film Coated Tablets (six 100 mg tablets) or 6 matching placebo tablets will be administered once every 8 hours (Cohort 1) every 4 hours (Cohort 2), or every 2 hours (Cohort 3 and 4) to healthy adult male and female subjects up to a total dose of 1800 mg. In Cohorts 1, 2 and 3, 6 subjects will receive the compound as 100 mg Film Coated Tablets and 2 subjects will receive the placebo for a total of 8 subjects per cohort. In Cohort 4, 12 subjects will receive the compound as 100 mg Film Coated Tablets and 6 subjects will receive the placebo for a total of 18 subjects.
A Holter monitor will be attached to each subject in order to continuously record ECGs. The monitor will be attached 1 hour before the first dose and will remain attached until after the final blood sample collection. The electrodes for the Holter monitor will be checked by a member of the clinic staff at appropriate intervals to ensure they are attached.

[11] = system: HK cleavage by PKa in undiluted plasma; assay: DXS-activated cleavage of HK in undiluted plasma (immunoblot); type: biochemical; settings: 300 nM PKa inhibitor, 20 min incubation with DXS
Description: DXS-activated cleavage of HK in undiluted plasma was performed in the absence or presence of 300 nM PKa inhibitor and quantified by SDS-PAGE gel electrophoresis, using 7.5% Criterion TGX Precast gels (Biorad). Transfer was made onto Immunobilon-FL PVDF membrane. Image analysis was done using the LICOR imaging system. Mouse monoclonal anti-HK antibody (MAB15692, R&D systems) was used for traditional immunoblotting. Data presented as % of HK remaining after 20 min incubation with DXS compared to HK levels in unactivated plasma (Table 1).

[12] = Phase 1 single ascending dose study: safety and tolerability; type: in vivo, human; settings: phase I trial, healthy males, 5-600 mg oral
From the text: (§3) This study was a randomized, double-blind, placebo-controlled single ascending dose (SAD) and crossover studies for food effect and capsule/tablet formulations.

[13] = Phase 1 single ascending dose study: plasma pharmacokinetics (LC MS/MS); type: in vivo, human; settings: oral capsule, fasted, 5 mg to 600 mg
Description: as §3
Samples for pharmacokinetic (PK) and PD assessment were taken at repeated intervals over 48 hours.
Plasma samples used for PK assessment were analysed using a validated liquid chromatography tandem mass spectrometry (LC MS/MS) method.

T3 sequence (P03952 391-638 limits assumed): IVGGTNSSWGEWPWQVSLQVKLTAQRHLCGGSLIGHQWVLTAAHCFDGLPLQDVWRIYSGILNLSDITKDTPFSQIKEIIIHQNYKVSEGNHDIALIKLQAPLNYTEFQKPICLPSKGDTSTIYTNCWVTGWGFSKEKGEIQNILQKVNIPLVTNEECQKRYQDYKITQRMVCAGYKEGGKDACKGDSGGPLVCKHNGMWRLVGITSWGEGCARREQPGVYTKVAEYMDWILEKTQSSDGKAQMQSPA
T3 sequence (P03952 20-390 partner limits assumed): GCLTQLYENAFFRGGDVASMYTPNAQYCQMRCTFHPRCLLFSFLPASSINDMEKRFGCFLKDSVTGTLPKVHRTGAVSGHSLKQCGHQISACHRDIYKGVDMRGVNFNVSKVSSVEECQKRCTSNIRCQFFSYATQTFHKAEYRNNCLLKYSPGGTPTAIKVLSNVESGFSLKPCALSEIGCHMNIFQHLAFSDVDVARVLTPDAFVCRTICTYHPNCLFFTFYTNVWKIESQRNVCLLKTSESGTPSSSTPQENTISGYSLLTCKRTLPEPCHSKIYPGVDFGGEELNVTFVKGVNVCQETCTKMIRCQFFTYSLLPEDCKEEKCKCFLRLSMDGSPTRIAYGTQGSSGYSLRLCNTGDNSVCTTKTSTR
T2 sequence (P03952 391-638 limits assumed): as the sequence (P03952 391-638 limits assumed) above
T2 sequence (P03952 20-390 partner limits assumed): as the sequence (P03952 20-390 partner limits assumed) above
T1 sequence (P03952 391-638 limits assumed): as the sequence (P03952 391-638 limits assumed) above
T1 sequence (P03952 20-390 partner limits assumed): as the sequence (P03952 20-390 partner limits assumed) above
PKa in DXS-activated plasma, sequence (P03952 391-638 limits assumed): as the sequence (P03952 391-638 limits assumed) above
PKa in DXS-activated plasma, sequence (P03952 20-390 partner limits assumed): as the sequence (P03952 20-390 partner limits assumed) above
purified PKa, sequence (P03952 391-638 limits assumed): as the sequence (P03952 391-638 limits assumed) above
purified PKa, sequence (P03952 20-390 partner limits assumed): as the sequence (P03952 20-390 partner limits assumed) above

Molecule: Ecallantide
- reported adverse reactions / risks [1]: risk of anaphylactic reactions

- IC50 [2]: 1700 nM
- IC50 [3]: 50 nM
- Kon (purified PKa): 40000 M⁻¹ s⁻¹
- inhibition of enzyme activity after activation of plasma [4]: slower action
Molecule: C1-INH: C1 inhibitor (Sigma Cat #E0518), used as a therapeutic benchmark for HAE [Compound C1-INH]

Molecule: N#Cc1cccc([C@@H](NCC2CC2)c2ccc(F)c(NC(=O)c3cc(C(F)(F)F)nn3-c3cccc(CN)c3)c2)c1 [Berotralstat, reference compound]
- reported adverse reactions / risks [1]: more gastrointestinal adverse effects

- fraction unbound at 5 h, 5 μM [5]: 0.25
- Cmax [6]: 5910 ng/mL
- food effect on the pharmacodynamic (PD) profile (Plasma Kallikrein; 600 mg tablet, fed vs fasted): no significant food-effect
- plasma exposure [13]: rapid and dose-dependent plasma exposure
Molecule: COCc1nn(Cc2ccc(Cn3ccccc3=O)cc2)cc1C(=O)NCc1nccc(OC)c1F [compound of Formula A, N-[(3-fluoro-4-methoxypyridin-2-yl)methyl]-3-(methoxymethyl)-1-({4-[(2-oxopyridin-1-yl)methyl]phenyl}methyl)pyrazole-4-carboxamide]
- protection against HK cleavage ([7]; HAE plasma stimulated with dextran sulfate): dose dependent protection against HK cleavage
- protection against HK cleavage ([7]; healthy control plasma stimulated with dextran sulfate): dose dependent protection against HK cleavage
- effect on HK cleavage in DXS-activated plasma (HK cleavage; 600 mg oral capsules, up to 12 hrs post-dose): reduces HK cleavage
- duration of protection of HK from DXS-activated cleavage in undiluted plasma (HK cleavage; single 600 mg dose): at least 10 hr
- effect on generation of FXIIa in DXS-activated plasma [8]: reduces the generation of FXIIa
- lag time (time until appearance of catalytic activity during contact system activation) (Plasma Kallikrein; 600 mg dose, tablet formulation): increases the time until appearance of catalytic activity
- effect on PPK cleavage in DXS-activated plasma [9]: reduces PPK cleavage
- effects on the studied ECG parameters [10]: No clinically relevant effects
- serious adverse events [10]: No serious adverse events
- severity of reported adverse events [10]: mild
- HK protection (% of HK remaining vs unactivated plasma) [11]: 85%
- serious adverse events [12]: No serious adverse events
- tolerability [12]: no tolerability signals

B1: lanadelumab: recombinant fully human IgG1 kappa light chain monoclonal antibody, active substance of Takhzyro (antibody, chains of the INN, looked up, V domains shown)
VH: EVQLLESGGGLVQPGGSLRLSCAASGFTFSHYIMMWVRQAPGKGLEWVSGIYSSGGITVYADSVKGRFTISRDNSKNTLYLQMNSLRAEDTAVYYCAYRRIGVPRRDEFDIWGQGTMVTVSS
VL: DIQMTQSPSTLSASVGDRVTITCRASQSISSWLAWYQQKPGKAPKLLIYKASTLESGVPSRFSGSGSGTEFTLTISSLQPDDFATYYCQQYNTYWTFGQGTKVEIK
- reported adverse reactions / risks [1]: hypersensitivity, injection site pain, injection site erythema, and injection site bruising
